Measurements reported in ChEMBL document CHEMBL3779859, “Synergistic activity of a short lipidated antimicrobial peptide (lipoAMP) and colistin or tobramycin against Pseudomonas aeruginosa from cystic fibrosis patients” (Medchemcomm, 2016).
≈ marks a conversion by molar mass, not a printed value. Calls of active or inactive are those of the source. The rule behind the calls is not given here. Peptide text beside a SMILES is read from it. * marks the point of attachment. Decanoyl = CCCCCCCCCC(=O)*

What was measured:
[1] = test system: Pseudomonas aeruginosa; test: Antibacterial activity against Pseudomonas aeruginosa Clone C clinical isolate assessed as inhibition of biofilm formation at 32 ug/ml after 18 to 22 hrs by crystal violet staining-based polystyrene microtiter plate reader method in presence of 2 ug/ml colistin; format: functional
[2] = test system: Pseudomonas aeruginosa; test: Antibacterial activity against Pseudomonas aeruginosa KD491 clinical isolate assessed as inhibition of biofilm formation at 2 ug/ml after 18 to 22 hrs by crystal violet staining-based polystyrene microtiter plate reader method; format: functional
[3] = test system: Pseudomonas aeruginosa; test: Antibacterial activity against Pseudomonas aeruginosa KD491 clinical isolate assessed as growth inhibition at 4 ug/ml measured every 15 mins by microtiter plate reader method in presence of […] ug/ml colistin; format: functional, organism-based
[4] = test system: Pseudomonas aeruginosa; test: Antibacterial activity against Pseudomonas aeruginosa Clone C clinical isolate assessed as inhibition of biofilm formation at 8 ug/ml after 24 hrs by propidium iodide staining-based confocal laser microscopy; format: functional, organism-based
[5] = test system: Pseudomonas aeruginosa; test: Antibacterial activity against Pseudomonas aeruginosa PAO1 clinical isolate assessed as delay in growth rate in exponential phase of bacterial growth curve at 4 to 32 ug/ml measured every 15 mins by microtiter plate reader method; format: functional, organism-based
[6] = test system: Pseudomonas aeruginosa; test: Antibacterial activity against Pseudomonas aeruginosa VW1540 clinical isolate after 16 to 20 hrs by microdilution assay; format: functional
[7] = test system: Pseudomonas aeruginosa; test: Antibacterial activity against Pseudomonas aeruginosa LESB58 clinical isolate after 18 to 22 hrs by checkerboard method in presence of tobramycin; format: functional
[8] = test system: Pseudomonas aeruginosa; test: Antibacterial activity against Pseudomonas aeruginosa VW178 clinical isolate after 16 to 20 hrs by microdilution assay; format: functional
[9] = test system: Pseudomonas aeruginosa; test: Antibacterial activity against Pseudomonas aeruginosa KD491 clinical isolate assessed as delay in growth at 4 to 8 ug/ml measured every 15 mins by microtiter plate reader method; format: functional, organism-based
[10] = test system: Pseudomonas aeruginosa; test: Antibacterial activity against Pseudomonas aeruginosa PAO1 clinical isolate assessed as inhibition of biofilm formation at 32 ug/ml after 18 to 22 hrs by crystal violet staining-based polystyrene microtiter plate reader method in presence of 2 ug/ml colistin; format: functional
[11] = test system: Pseudomonas aeruginosa; test: Antibacterial activity against Pseudomonas aeruginosa PAO1 clinical isolate assessed as growth inhibition at 4 ug/ml measured every 15 mins by microtiter plate reader method in presence of 1 ug/ml colistin; format: functional, organism-based
[12] = test system: Pseudomonas aeruginosa; test: Antibacterial activity against Pseudomonas aeruginosa LESB58 clinical isolate after 18 to 22 hrs by checkerboard method in presence of colistin; format: functional
[13] = test system: Pseudomonas aeruginosa; test: Antibacterial activity against Pseudomonas aeruginosa PAO1 clinical isolate assessed as growth inhibition at 32 ug/ml measured every 15 mins by microtiter plate reader method in presence of […] ug/ml tobramycin; format: functional, organism-based
[14] = test system: Pseudomonas aeruginosa; test: Antibacterial activity against Pseudomonas aeruginosa VW313 clinical isolate after 16 to 20 hrs by microdilution assay; format: functional
[15] = test system: Pseudomonas aeruginosa; test: Antibacterial activity against Pseudomonas aeruginosa Clone C clinical isolate after 16 to 20 hrs by microdilution assay; format: functional
[16] = test system: Pseudomonas aeruginosa; test: Antibacterial activity against Pseudomonas aeruginosa Clone C clinical isolate assessed as growth inhibition at 16 ug/ml measured every 15 mins by microtiter plate reader method in presence of […] ug/ml tobramycin; format: functional, organism-based
[17] = test system: Pseudomonas aeruginosa; test: Antibacterial activity against Pseudomonas aeruginosa D599 clinical isolate after 16 to 20 hrs by microdilution assay; format: functional
[18] = test system: Pseudomonas aeruginosa; test: Antibacterial activity against Pseudomonas aeruginosa KD491 clinical isolate after 16 to 20 hrs by microdilution assay; format: functional
[19] = test system: Pseudomonas aeruginosa; test: Antibacterial activity against Pseudomonas aeruginosa PAO1 clinical isolate after 16 to 20 hrs by microdilution assay; format: functional
[20] = test system: Pseudomonas aeruginosa; test: Antibacterial activity against Pseudomonas aeruginosa PAO1 clinical isolate assessed as delay in growth at 4 to 32 ug/ml measured every 15 mins by microtiter plate reader method; format: functional, organism-based
[21] = test system: Pseudomonas aeruginosa; test: Antibacterial activity against Pseudomonas aeruginosa LESB58 clinical isolate assessed as delay in growth at 4 to 32 ug/ml measured every 15 mins by microtiter plate reader method; format: functional, organism-based
[22] = test system: Pseudomonas aeruginosa; test: Antibacterial activity against Pseudomonas aeruginosa Clone C clinical isolate assessed as growth inhibition at 8 ug/ml measured every 15 mins by microtiter plate reader method in presence of […] ug/ml colistin; format: functional, organism-based
[23] = test system: Pseudomonas aeruginosa; test: Antibacterial activity against Pseudomonas aeruginosa Clone C clinical isolate assessed as inhibition of biofilm formation at 32 ug/ml after 18 to 22 hrs by crystal violet staining-based polystyrene microtiter plate reader method in presence of 2 ug/ml tobramycin; format: functional, organism-based
[24] = test system: Pseudomonas aeruginosa; test: Antibacterial activity against Pseudomonas aeruginosa KD491 clinical isolate assessed as inhibition of biofilm formation at 32 ug/ml after 18 to 22 hrs by crystal violet staining-based polystyrene microtiter plate reader method; format: functional
[25] = test system: Pseudomonas aeruginosa; test: Antibacterial activity against Pseudomonas aeruginosa VW1633 clinical isolate after 16 to 20 hrs by microdilution assay; format: functional
[26] = test system: Pseudomonas aeruginosa; test: Antibacterial activity against Pseudomonas aeruginosa PAO1 clinical isolate after 18 to 22 hrs by checkerboard method in presence of colistin; format: functional
[27] = test system: Pseudomonas aeruginosa; test: Antibacterial activity against Pseudomonas aeruginosa KD491 clinical isolate after 18 to 22 hrs by checkerboard method in presence of colistin; format: functional
[28] = test system: Pseudomonas aeruginosa; test: Antibacterial activity against Pseudomonas aeruginosa PAO1 clinical isolate assessed as inhibition of biofilm formation at 32 ug/ml after 18 to 22 hrs by crystal violet staining-based polystyrene microtiter plate reader method in presence of 2 ug/ml tobramycin; format: functional, organism-based
[29] = test system: Pseudomonas aeruginosa; test: Antibacterial activity against Pseudomonas aeruginosa LESB58 clinical isolate after 16 to 20 hrs by microdilution assay; format: functional
[30] = test system: Pseudomonas aeruginosa; test: Antibacterial activity against Pseudomonas aeruginosa KD491 clinical isolate assessed as inhibition of biofilm formation at 8 ug/ml after 24 hrs by propidium iodide staining-based confocal laser microscopy; format: functional, organism-based
[31] = test system: Pseudomonas aeruginosa; test: Antibacterial activity against Pseudomonas aeruginosa KD491 clinical isolate assessed as inhibition of biofilm formation at 4 ug/ml after 18 to 22 hrs by crystal violet staining-based polystyrene microtiter plate reader method; format: functional
[32] = test system: Pseudomonas aeruginosa; test: Antibacterial activity against Pseudomonas aeruginosa PAO1 clinical isolate after 18 to 22 hrs by checkerboard method in presence of tobramycin; format: functional
[33] = test system: Pseudomonas aeruginosa; test: Antibacterial activity against Pseudomonas aeruginosa Clone C clinical isolate assessed as inhibition of biofilm formation at 128 ug/ml after 18 to 22 hrs by crystal violet staining-based polystyrene microtiter plate reader method; format: functional
[34] = test system: Pseudomonas aeruginosa; test: Antibacterial activity against Pseudomonas aeruginosa Clone C clinical isolate assessed as delay in growth rate in exponential phase of bacterial growth curve at 8 to 16 ug/ml measured every 15 mins by microtiter plate reader method; format: functional, organism-based
[35] = test system: Pseudomonas aeruginosa; test: Antibacterial activity against Pseudomonas aeruginosa LESB58 clinical isolate assessed as growth inhibition at 4 ug/ml measured every 15 mins by microtiter plate reader method in presence of 2 ug/ml colistin; format: functional, organism-based
[36] = test system: Pseudomonas aeruginosa; test: Antibacterial activity against Pseudomonas aeruginosa kl 1.1 clinical isolate after 16 to 20 hrs by microdilution assay; format: functional
[37] = test system: Pseudomonas aeruginosa; test: Antibacterial activity against Pseudomonas aeruginosa LES431 clinical isolate after 16 to 20 hrs by microdilution assay; format: functional
[38] = test system: Pseudomonas aeruginosa; test: Antibacterial activity against Pseudomonas aeruginosa Clone C clinical isolate after 18 to 22 hrs by checkerboard method in presence of colistin; format: functional
[39] = test system: Pseudomonas aeruginosa; test: Antibacterial activity against Pseudomonas aeruginosa KD491 clinical isolate after 18 to 22 hrs by checkerboard method in presence of tobramycin; format: functional
[40] = test system: Pseudomonas aeruginosa; test: Antibacterial activity against Pseudomonas aeruginosa VW1471 clinical isolate after 16 to 20 hrs by microdilution assay; format: functional

MIC [6]: 64 µg/mL (≈ 48.2 µM)
MIC [8]: 32 µg/mL (≈ 24.1 µM)
MIC [14]: 32 µg/mL (≈ 24.1 µM)
MIC [15]: 128 µg/mL (≈ 96.4 µM)
MIC [17]: 128 µg/mL (≈ 96.4 µM)
MIC [18]: 16 µg/mL (≈ 12.1 µM)
MIC [19]: 256 µg/mL (≈ 193 µM)
MIC [25]: 16 µg/mL (≈ 12.1 µM)
MIC [29]: 128 µg/mL (≈ 96.4 µM)
MIC [36]: 128 µg/mL (≈ 96.4 µM)
MIC [37]: 32 µg/mL (≈ 24.1 µM)
MIC [40]: 64 µg/mL (≈ 48.2 µM)
Structure (SMILES): CCCCCCCCCC(=O)NCCCC[C@H](NC(=O)[C@H](Cc1c[nH]c2ccccc12)NC(=O)[C@H](CCCNC(=N)N)NC(=O)[C@H](Cc1c[nH]c2ccccc12)NC(=O)[C@H](CCCNC(=N)N)NC(=O)[C@H](Cc1c[nH]c2ccccc12)NC(=O)[C@@H](N)CCCNC(=N)N)C(=O)O (H-RWRWRWK(Decanoyl)-OH)
inhibition (INH) [1]: 70%
inhibition at 2 µg/mL [2]: 45%
growth inhibition (GI) [3]: Active
inhibition [4]: inactive
Activity [5]: Active
fractional inhibitory concentration index (FICI) [7]: 0.5
Activity [9]: Active
inhibition (INH) [10]: 84%
growth inhibition (GI) [11]: Active
fractional inhibitory concentration index (FICI) [12]: 0.375
growth inhibition (GI) [13]: Active
growth inhibition (GI) [16]: Active
Activity [20]: Active
Activity [21]: Active
growth inhibition (GI) [22]: Active
inhibition [23]: inactive
inhibition at 32 µg/mL [24]: 80%
fractional inhibitory concentration index (FICI) [26]: 0.3125
fractional inhibitory concentration index (FICI) [27]: 0.2625
inhibition [28]: inactive
inhibition [30]: inactive
inhibition at 4 µg/mL [31]: 52%
fractional inhibitory concentration index (FICI) [32]: 0.75
inhibition at 128 µg/mL [33]: 82%
Activity [34]: Active
growth inhibition (GI) [35]: Active
fractional inhibitory concentration index (FICI) [38]: 0.5
fractional inhibitory concentration index (FICI) [39]: 0.375
